# Results as given in a melting point compilation (Tetko et al.; mined from patent text by program, amines drawn as free bases though some values may be those of a salt).
row,Structure (SMILES),melting point [°C]
1,COc1ccc(NC(=O)c2ccc(-c3ccc(C(=O)N4CCCC4)cc3C)cc2)cc1N1CCN(C)CC1,187 to 188
2,ClC(=NNc1cc(Cl)ccc1Cl)c1ccccc1,84.5 to 86
3,O=C(O)C1c2ccccc2COc2ccc(C(F)(F)F)cc21 (centres undefined),258 to 260
4,Nc1cc(O)ccc1Oc1ccccc1,156 to 157
5,COCC(=O)Oc1cc(=O)n(-c2ccccc2)c2ncccc12,155 to 157
6,CCOC(=O)Cn1c2cccccc-2c(C(N)=O)c1=O,215 to 220
7,CCC(C)(C(=O)N(C)C)n1cc(C)c(-c2ccccc2)n1 (centres undefined),102 to 104
8,COC(=O)C(Cc1ccccc1)Oc1ccc2cc(-c3cnc(Cc4ccccc4)o3)ccc2c1 (centres undefined),88 to 90
9,CCOC(=O)c1c(C)nc2c(cnn2CCCC#N)c1OCC,99
10,COc1ccnc(N2CCC3(CCCN(Cc4c[nH]c5ccccc45)C3=O)CC2)n1,190 to 191
11,O=C(NCCc1c[nH]cn1)c1ccccc1NS(=O)(=O)c1cccc(C(F)(F)F)c1,160 to 163
12,O=P(O)(O)c1cccc(Br)c1,144 to 149
13,COc1cc2c(cc1OC)[C@@H]1CN(C)CC[C@@H]1N=C2c1ccc(NC(=O)c2ccccc2)cc1 (relative stereo),240 to 245
14,O=c1[nH]c2ccccc2n1CCN1CCNCC1,123
15,COc1cc(CC(=O)O)cc2c1NC(C(F)(F)F)CC2 (centres undefined),108 to 109
16,CCOC(=O)c1ccc(NC(=O)CCn2cnc3c(=O)[nH]cnc32)cc1,265 to 269
17,CC(=O)C(=CN(C)C)c1ccc(N2CCC(c3ccccc3)CC2)cc1,93 to 100
18,COc1ccc(-c2nc(Sc3ccccc3NC(C)=O)[nH]c2-c2ccc(OC)cc2)cc1,183
19,CCC1C(=O)N2C(C(=O)OCc3ccc([N+](=O)[O-])cc3)=C(CCNC(C)=O)CC12 (centres undefined),174 to 176
20,COC(=O)Nc1cccc(CC(C)N)c1 (centres undefined),93 to 95
21,CC(=O)N1CCC(Cl)c2nc3ccccc3c(C)c2C1 (centres undefined),< 20
22,CC(=O)OC1Cc2ccccc2N(C#N)c2ccccc21 (centres undefined),108 to 119
23,COc1ccc2c(c1Cl)Sc1ccccc1N2C(C)=O,136
24,CC(=O)NC[C@@H]1C[C@H]1c1cccn2nc(C)cc12 (relative stereo),100 to 101
25,O=C(O)c1cc(Cl)cc2c1OCCO2,180

row,Structure (SMILES),melting point [°C]
1,COC(=O)C=C1CN=C(c2ccccc2)c2cc(Cl)ccc2N1,167 to 170
2,O=C(O)c1cc2cc(OCCc3ccccc3)ccc2[nH]1,184 to 187
3,CS(=O)(=O)c1ccccc1CNC(=O)[C@@H]1CCCN(c2cccc3c2C(=O)N(Cc2ccncc2)C3=O)C1,101 to 102
4,CC(C)NC(=O)c1c[nH]c2ncc(-c3nn(C)c4cc(Cl)cc(F)c34)nc12,347 to 349
5,O=C(O)COc1c(Cl)cc2c(-c3ccccc3F)noc2c1Cl,160 to 170
6,C[Si](C)(C)c1cccc(Br)c1C(=O)O,139 to 141
7,COc1ccc(-c2ccc(=O)n(Cc3ccc(Cl)cc3F)c2)cn1,136
8,CC(C)(C)OC(=O)N1CCC(n2cc(-c3ccc(Oc4ccccc4)cc3)c3c(N)ncnc32)C1 (centres undefined),168 to 170
9,O=C1c2c(O)ccc(O)c2C(=O)c2c(F)ccc(F)c21,301 to 304
10,CC1(C)COC(c2ccccc2-c2ccc(CO)cc2)=N1,97 to 100
11,COc1ccc2c(c1)c(-c1cc3nccnc3[nH]1)cn2C,270 to 272
12,Cc1nc2c(F)cccc2c(Cl)c1CCCl,101 to 103
13,CNC(=O)CC(SC(C)=O)C(CC(C)C)C(=O)NC(Cc1ccc(OC)cc1)C(=O)NC (centres undefined),195 to 199
14,CCCCCCCCCCCCN1CN=C(NC(=O)Nc2c(C(C)C)cccc2C(C)C)N1,128 to 140
15,Cc1ccccc1COC1COC(c2ccco2)OC1 (centres undefined),64 to 65
16,N#Cc1[nH]c2ccc(Cl)cc2c1-c1ccccc1F,185 to 186
17,COc1cc(O)c([N+](=O)[O-])c2ccccc12,128 to 130
18,Cc1cc2c(cc1-c1ccc(C=CC(=O)O)s1)C(C)(C)CCC2(C)C,175 to 177
19,COc1ccc(C(=O)n2c(C)c(Cc3cc(=O)n(C4CCCCC4)[nH]3)c3cc(OC)ccc32)cc1,88 to 90
20,CCOc1ccc(-c2nc(OC)ccc2N2CCC(c3ccc(OC)cc3)N(C)CC2)cc1 (centres undefined),103 to 107
21,O=C(NCCc1ccccn1)Nc1ccccc1[N+](=O)[O-],182
22,CNc1nc(-c2cccc(NC(=O)c3ccc(Cl)cc3)c2)c2cc(OC)c(OC)cc2n1,193 to 195
23,COc1ccc(-c2oc3cc(NS(C)(=O)=O)c(Oc4ccccc4)cc3c(=O)c2O)cc1OC,222 to 224
24,COC(=O)CNC(=O)c1ccc(C(=O)NS(=O)(=O)c2ccc(CCNC(=O)CC3CCCCC3)cc2)cn1,178 to 179
